Reference: publication PMC9476189 (ACS Omega, 2022)

Assays:
[1] = target: α-glucosidase (Saccharomyces cerevisiae, UniProt P53341); test: α-Glucosidase assay; type: biochemical; conditions: mean ± SEM, triplicate; for IC50: read-out: α-glucosidase inhibition, IC50
[2] = target: AChE (Homo sapiens, UniProt P22303); conditions: for AChE inhibition, inhibition (%) at 0.5 mM / IC50: mean ± SEM, triplicate; for IC50: read-out: AChE inhibition, IC50
[3] = target: T1, LOX (Glycine max, UniProt P08170); test: Lipoxygenase assay; type: biochemical; conditions: mean ± SEM, triplicate; for IC50: read-out: LOX inhibition, IC50
T1 sequence (P08170 1-839): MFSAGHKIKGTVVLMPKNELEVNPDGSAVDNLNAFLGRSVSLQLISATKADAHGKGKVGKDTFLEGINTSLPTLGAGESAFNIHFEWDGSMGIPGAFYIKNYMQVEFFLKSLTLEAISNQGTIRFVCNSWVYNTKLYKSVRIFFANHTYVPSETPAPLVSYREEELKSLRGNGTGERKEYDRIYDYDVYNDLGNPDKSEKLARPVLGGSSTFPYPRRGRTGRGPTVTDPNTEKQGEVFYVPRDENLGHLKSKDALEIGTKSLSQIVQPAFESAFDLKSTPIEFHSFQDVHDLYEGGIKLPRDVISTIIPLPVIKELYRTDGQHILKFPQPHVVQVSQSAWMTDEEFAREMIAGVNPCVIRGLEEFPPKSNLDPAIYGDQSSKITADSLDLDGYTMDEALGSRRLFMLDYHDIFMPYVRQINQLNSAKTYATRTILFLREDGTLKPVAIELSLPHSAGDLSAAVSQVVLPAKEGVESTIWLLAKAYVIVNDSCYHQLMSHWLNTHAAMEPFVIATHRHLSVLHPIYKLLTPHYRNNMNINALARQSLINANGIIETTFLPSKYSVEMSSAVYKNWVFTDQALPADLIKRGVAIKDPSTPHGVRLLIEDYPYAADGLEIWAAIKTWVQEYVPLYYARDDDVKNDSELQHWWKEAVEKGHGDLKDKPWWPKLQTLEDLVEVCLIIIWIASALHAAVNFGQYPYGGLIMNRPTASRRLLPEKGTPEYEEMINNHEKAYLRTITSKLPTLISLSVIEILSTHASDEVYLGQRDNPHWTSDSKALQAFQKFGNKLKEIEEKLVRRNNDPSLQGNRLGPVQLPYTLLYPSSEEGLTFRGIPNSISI

[4] = target: BChE (Homo sapiens, UniProt P06276); conditions: mean ± SEM, triplicate
BChE, sequence (P06276 29-602, species assumed): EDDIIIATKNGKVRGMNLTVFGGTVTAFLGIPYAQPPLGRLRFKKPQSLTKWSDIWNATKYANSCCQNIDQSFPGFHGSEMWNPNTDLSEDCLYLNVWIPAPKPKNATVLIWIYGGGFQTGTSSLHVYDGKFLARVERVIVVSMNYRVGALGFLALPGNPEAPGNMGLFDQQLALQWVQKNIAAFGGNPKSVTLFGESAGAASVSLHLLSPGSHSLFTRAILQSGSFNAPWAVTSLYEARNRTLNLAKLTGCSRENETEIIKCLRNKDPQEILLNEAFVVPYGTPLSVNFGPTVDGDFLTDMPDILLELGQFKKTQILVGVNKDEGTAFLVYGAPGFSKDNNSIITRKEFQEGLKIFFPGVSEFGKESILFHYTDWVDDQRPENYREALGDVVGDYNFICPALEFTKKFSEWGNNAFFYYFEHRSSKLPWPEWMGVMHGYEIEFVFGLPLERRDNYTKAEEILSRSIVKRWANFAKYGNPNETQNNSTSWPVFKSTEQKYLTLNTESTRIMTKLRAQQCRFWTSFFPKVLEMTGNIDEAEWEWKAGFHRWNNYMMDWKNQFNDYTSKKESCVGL

[5] = target: urease (Canavalia ensiformis, UniProt P07374); conditions: mean ± SEM, triplicate; for IC50: read-out: urease inhibition, IC50
urease, sequence (P07374 whole entry, looked up): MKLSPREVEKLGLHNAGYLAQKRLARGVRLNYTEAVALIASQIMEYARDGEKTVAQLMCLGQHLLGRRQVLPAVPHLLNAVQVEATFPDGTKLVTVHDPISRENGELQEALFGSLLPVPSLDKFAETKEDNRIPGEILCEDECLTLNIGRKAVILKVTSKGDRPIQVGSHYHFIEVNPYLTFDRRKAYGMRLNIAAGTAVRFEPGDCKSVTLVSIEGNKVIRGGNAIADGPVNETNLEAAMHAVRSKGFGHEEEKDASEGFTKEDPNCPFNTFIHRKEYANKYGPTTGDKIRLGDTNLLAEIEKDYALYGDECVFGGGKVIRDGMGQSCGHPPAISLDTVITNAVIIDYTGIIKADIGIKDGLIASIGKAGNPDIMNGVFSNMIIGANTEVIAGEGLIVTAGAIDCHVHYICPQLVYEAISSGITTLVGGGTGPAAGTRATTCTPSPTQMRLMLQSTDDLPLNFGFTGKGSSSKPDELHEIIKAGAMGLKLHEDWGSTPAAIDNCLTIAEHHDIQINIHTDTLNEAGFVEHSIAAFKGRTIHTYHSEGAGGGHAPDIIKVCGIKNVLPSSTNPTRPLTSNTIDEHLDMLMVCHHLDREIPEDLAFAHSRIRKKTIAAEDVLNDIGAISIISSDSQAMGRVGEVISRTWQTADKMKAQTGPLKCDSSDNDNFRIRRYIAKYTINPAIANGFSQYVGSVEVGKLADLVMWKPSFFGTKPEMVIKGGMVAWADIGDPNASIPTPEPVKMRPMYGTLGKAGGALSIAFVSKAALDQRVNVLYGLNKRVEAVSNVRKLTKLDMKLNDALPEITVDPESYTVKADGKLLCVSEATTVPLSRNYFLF

α-glucosidase, sequence (P53341 whole entry): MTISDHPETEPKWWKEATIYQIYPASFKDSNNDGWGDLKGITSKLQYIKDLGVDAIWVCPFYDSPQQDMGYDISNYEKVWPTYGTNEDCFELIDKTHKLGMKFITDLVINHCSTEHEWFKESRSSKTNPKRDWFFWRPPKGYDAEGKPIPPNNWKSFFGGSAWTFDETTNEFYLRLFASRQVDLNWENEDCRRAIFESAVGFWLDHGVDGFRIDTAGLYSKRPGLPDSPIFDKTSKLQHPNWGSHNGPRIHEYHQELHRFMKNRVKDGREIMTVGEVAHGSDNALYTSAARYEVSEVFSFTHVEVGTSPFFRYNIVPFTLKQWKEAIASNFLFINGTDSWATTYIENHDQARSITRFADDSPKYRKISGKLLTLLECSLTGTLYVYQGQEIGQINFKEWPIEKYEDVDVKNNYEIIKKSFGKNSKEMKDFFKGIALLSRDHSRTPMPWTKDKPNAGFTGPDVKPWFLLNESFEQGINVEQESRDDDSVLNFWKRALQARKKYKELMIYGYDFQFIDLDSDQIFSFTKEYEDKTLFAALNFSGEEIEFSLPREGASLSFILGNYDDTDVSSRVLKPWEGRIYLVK
AChE, sequence (P22303 32-614): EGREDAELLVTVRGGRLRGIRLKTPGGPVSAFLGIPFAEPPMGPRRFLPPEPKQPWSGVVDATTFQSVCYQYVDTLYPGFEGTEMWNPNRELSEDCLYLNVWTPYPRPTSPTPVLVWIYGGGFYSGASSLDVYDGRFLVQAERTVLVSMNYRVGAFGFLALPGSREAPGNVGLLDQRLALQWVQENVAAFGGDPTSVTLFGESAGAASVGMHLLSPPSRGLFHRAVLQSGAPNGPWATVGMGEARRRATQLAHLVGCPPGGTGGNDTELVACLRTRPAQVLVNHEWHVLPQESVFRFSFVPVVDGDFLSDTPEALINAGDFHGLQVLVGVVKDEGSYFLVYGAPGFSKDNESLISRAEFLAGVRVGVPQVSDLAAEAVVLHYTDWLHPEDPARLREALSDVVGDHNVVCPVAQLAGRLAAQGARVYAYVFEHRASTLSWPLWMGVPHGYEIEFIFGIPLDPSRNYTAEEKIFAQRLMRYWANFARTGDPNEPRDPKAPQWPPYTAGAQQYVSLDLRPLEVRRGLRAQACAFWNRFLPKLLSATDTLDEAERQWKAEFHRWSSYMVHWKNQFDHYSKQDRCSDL

| SMILES | α-glucosidase inhibition, inhibition (%) at 0.5 mM [1] [%] | IC50 [1] [µM] | AChE inhibition, inhibition (%) at 0.5 mM [2] [%] | IC50 [2] [µM] | LOX inhibition, inhibition (%) at 0.25 mM [3] [%] | IC50 [3] [µM] | BChE inhibition, inhibition (%) at 0.5 mM [4] [%] | urease inhibition, inhibition (%) at 0.25 mM [5] [%] | IC50 [5] [µM] | activity against AChE enzyme (in words) [2] | IC50 ([4]; read-out: BChE inhibition, IC50) [µM] |
| --- | --- | --- | --- | --- | --- | --- | --- | --- | --- | --- | --- |
| Cc1ccc(S(=O)(=O)N2CCC(c3nnc(SCC(=O)Nc4c(C)cccc4[N+](=O)[O-])n3C)CC2)cc1 [Compound 12o, 1-(4-toluenesulfonyl)-4-{3-[N-(2-methyl-6-nitrophenyl)-2-ethanamoylthio]-4-methyl-4H-1,2,4-triazol-5-yl} piperidine] | 72.23 ± 1.51 | 285.6 ± 1.23 | 81.53 ± 0.96 | 129.6 ± 0.73 | 64.28 ± 0.73 | 93.81 ± 0.34 | 39.65 ± 0.42 | 56.35 ± 1.67 | 241.8 ± 0.42 |  |  |
| Cc1ccc(S(=O)(=O)N2CCC(c3nnc(SCC(=O)Nc4cc(C)ccc4C)n3C)CC2)cc1 [Compound 12k, 1-(4-toluenesulfonyl)-4-{3-[N-(2,5-dimethylphenyl)-2-ethanamoylthio]-4-methyl-4H-1,2,4-triazol-5-yl} piperidine] | 71.16 ± 1.64 | 385.6 ± 1.32 | 65.27 ± 0.74 | 212.9 ± 0.59 | 29.45 ± 0.72 |  | 49.23 ± 0.94 | 76.15 ± 1.52 | 165.4 ± 1.27 |  |  |
| Cc1ccc(S(=O)(=O)N2CCC(c3nnc(SCC(=O)Nc4ccccc4)n3C)CC2)cc1 [Compound 12b, 1-(4-toluenesulfonyl)-4-[3-(N-phenyl-2-ethanamoylthio)-4-methyl-4H-1,2,4-triazol-5-yl] piperidine] | 76.23 ± 1.58 | 264.3 ± 1.24 | 89.15 ± 0.68 | 85.46 ± 0.45 | 35.25 ± 0.42 |  | 63.42 ± 0.75 | 31.23 ± 1.42 |  | excellent activity | 279.4 ± 0.59 |
| CCOc1ccc(NC(=O)CSc2nnc(C3CCN(S(=O)(=O)c4ccc(C)cc4)CC3)n2C)cc1 [Compound 12h, 1-(4-toluenesulfonyl)-4-{3-[N-(4-ethoxyphenyl)-2-ethanamoylthio]-4-methyl-4H-1,2,4-triazol-5-yl} piperidine] | 73.12 ± 1.58 | 286.6 ± 1.25 | 37.41 ± 0.62 |  | 63.53 ± 0.52 | 92.45 ± 0.26 | 16.51 ± 0.35 | 42.63 ± 1.52 |  |  |  |
| Cc1ccc(S(=O)(=O)N2CCC(c3nnc(SCC(=O)Nc4ccc(C)cc4C)n3C)CC2)cc1 [Compound 12j, 1-(4-toluenesulfonyl)-4-{3-[N-(2,4-dimethylphenyl)-2-ethanamoylthio]-4-methyl-4H-1,2,4-triazol-5-yl} piperidine] | 72.25 ± 1.85 | 365.9 ± 1.42 | 88.36 ± 0.79 | 94.63 ± 0.57 | 23.54 ± 0.85 |  | 37.62 ± 0.87 | 73.52 ± 1.65 | 167.2 ± 1.34 | excellent activity |  |
| CCc1ccccc1NC(=O)CSc1nnc(C2CCN(S(=O)(=O)c3ccc(C)cc3)CC2)n1C [Compound 12f, 1-(4-toluenesulfonyl)-4-{3-[N-(2-ethylphenyl)-2-ethanamoylthio]-4-methyl-4H-1,2,4-triazol-5-yl} piperidine] | 74.95 ± 1.74 | 275.8 ± 1.37 | 39.62 ± 0.55 |  | 62.38 ± 0.75 | 96.32 ± 0.37 | 39.78 ± 0.57 | 36.35 ± 1.78 |  |  |  |
